Columns and labels:
Assay in all cases: Bliss interaction score (quartile over a dose matrix) (fitness difference); higher = more antagonism (negative = synergy)
[1] = test system: S. aureus Newman
Summary of the method: (§1)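 Quartiles of the Bliss score were taken over technical, biological and donor/recipient replicates. That score is observed fitness minus the product of the single-drug fitness values, which were inferred from combination data. Fitness itself is OD595 at entry into stationary phase divided by the plate's robust no-drug mean, with a cap at 1.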

[2] = test system: B. subtilis 168
Summary of the method: as §1

[3] = test system: S. aureus DSM 20231
Summary of the method: as §1

[4] = test system: S. pneumoniae D39V
Summary of the method: as §1
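Also: first quartile when negative (synergy) and third quartile when positive (antagonism).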

CO/N=C(\C(=O)N[C@@H]1C(=O)N2C(C(=O)[O-])=C(C[N+]3(C)CCCC3)CS[C@H]12)c1csc(N)n1 [Cefepime] + CO/N=C(\C(=O)N[C@@H]1C(=O)N2C(C(=O)O)=C(COC(N)=O)CS[C@H]12)c1ccco1 [Cefuroxime]
Bliss interaction score [1]: 0.0741 | Bliss interaction score [2]: -0.0417 | Bliss interaction score [3]: 0.0866 | Bliss interaction score [4]: -0.0435

CO/N=C(\C(=O)N[C@@H]1C(=O)N2C(C(=O)[O-])=C(C[N+]3(C)CCCC3)CS[C@H]12)c1csc(N)n1 [Cefepime] + CO[C@@H]1[C@@H](OC(N)=O)[C@@H](O)[C@H](Oc2ccc3c(O)c(NC(=O)c4ccc(O)c(CC=C(C)C)c4)c(=O)oc3c2C)OC1(C)C [Novobiocin]
Bliss interaction score [1]: 0.0516 | Bliss interaction score [2]: -0.104 | Bliss interaction score [3]: 0.0654 | Bliss interaction score [4]: -0.098

CO/N=C(\C(=O)N[C@@H]1C(=O)N2C(C(=O)[O-])=C(C[N+]3(C)CCCC3)CS[C@H]12)c1csc(N)n1 [Cefepime] + CO[C@@]12[C@H](COC(N)=O)C3=C(C(=O)C(C)=C(N)C3=O)N1C[C@@H]1N[C@@H]12 [MitomycinC]
Bliss interaction score [1]: 0.0543 | Bliss interaction score [2]: -0.153 | Bliss interaction score [3]: -0.0534 | Bliss interaction score [4]: 0.125

CO/N=C(\C(=O)N[C@@H]1C(=O)N2C(C(=O)[O-])=C(C[N+]3(C)CCCC3)CS[C@H]12)c1csc(N)n1 [Cefepime] + COc1cccc2c1C(=O)c1c(O)c3c(c(O)c1C2=O)C[C@@](O)(C(=O)CO)C[C@@H]3O[C@H]1C[C@H](N)[C@H](O)[C@H](C)O1 [Doxorubicin]
Bliss interaction score [1]: -0.0429 | Bliss interaction score [2]: -0.239 | Bliss interaction score [3]: -0.1 | Bliss interaction score [4]: 0.0847

CO/N=C(\C(=O)N[C@@H]1C(=O)N2C(C(=O)[O-])=C(C[N+]3(C)CCCC3)CS[C@H]12)c1csc(N)n1 [Cefepime] + C[C@H]1c2cccc(O)c2C(=O)C2=C(O)[C@]3(O)C(=O)C(C(N)=O)=C(O)[C@@H](N(C)C)[C@@H]3[C@@H](O)[C@@H]21 [Doxycycline]
Bliss interaction score [1]: 0.0446 | Bliss interaction score [2]: 0.0669 | Bliss interaction score [3]: 0.119 | Bliss interaction score [4]: 0.203

CO/N=C(\C(=O)N[C@@H]1C(=O)N2C(C(=O)[O-])=C(C[N+]3(C)CCCC3)CS[C@H]12)c1csc(N)n1 [Cefepime] + N[C@@H]1CONC1=O [CycloserineD]
Bliss interaction score [1]: -0.0561 | Bliss interaction score [2]: 0.0718 | Bliss interaction score [3]: 0.0932 | Bliss interaction score [4]: 0.0926

CO/N=C(\C(=O)N[C@@H]1C(=O)N2C(C(=O)[O-])=C(C[N+]3(C)CCCC3)CS[C@H]12)c1csc(N)n1 [Cefepime] + O=C(N[C@H](CO)[C@H](O)c1ccc([N+](=O)[O-])cc1)C(Cl)Cl [Chloramphenicol]
Bliss interaction score [1]: 0.0591 | Bliss interaction score [2]: 0.109 | Bliss interaction score [3]: 0.158 | Bliss interaction score [4]: 0.149

CO/N=C(\C(=O)N[C@@H]1C(=O)N2C(C(=O)[O-])=C(C[N+]3(C)CCCC3)CS[C@H]12)c1csc(N)n1 [Cefepime] + O=C(O)[C@H]1/C(=C/CO)O[C@@H]2CC(=O)N21 [Clavulanic]
Bliss interaction score [1]: 0.0605 | Bliss interaction score [2]: -0.0808 | Bliss interaction score [3]: 0.0843 | Bliss interaction score [4]: -0.0597

CO/N=C(\C(=O)N[C@@H]1C(=O)N2C(C(=O)[O-])=C(C[N+]3(C)CCCC3)CS[C@H]12)c1csc(N)n1 [Cefepime] + O=C(O)c1cn(C2CC2)c2cc(N3CCNCC3)c(F)cc2c1=O [Ciprofloxacin]
Bliss interaction score [1]: 0.0601 | Bliss interaction score [2]: -0.193 | Bliss interaction score [3]: -0.0463 | Bliss interaction score [4]: 0.147

CO/N=C(\C(=O)N[C@@H]1C(=O)N2C(C(=O)[O-])=C(C[N+]3(C)CCCC3)CS[C@H]12)c1csc(N)n1 [Cefepime] + O=C(O[C@@H]1Cc2c(O)cc(O)cc2O[C@@H]1c1cc(O)c(O)c(O)c1)c1cc(O)c(O)c(O)c1 [EGCG]
Bliss interaction score [1]: -0.0498 | Bliss interaction score [2]: 0.0402 | Bliss interaction score [3]: -0.159 | Bliss interaction score [4]: 0.0602

CO/N=C(\C(=O)N[C@@H]1C(=O)N2C(C(=O)[O-])=C(C[N+]3(C)CCCC3)CS[C@H]12)c1csc(N)n1 [Cefepime] + Oc1cc(Cl)ccc1Oc1ccc(Cl)cc1Cl [Triclosan]
Bliss interaction score [1]: -0.0285 | Bliss interaction score [2]: 0.0502 | Bliss interaction score [3]: 0.0725 | Bliss interaction score [4]: -0.0485

CCCCCCCCCC(=O)N[C@@H](Cc1c[nH]c2ccccc12)C(=O)N[C@H](CC(N)=O)C(=O)N[C@@H](CC(=O)O)C(=O)N[C@@H]1C(=O)NCC(=O)N[C@@H](CCCN)C(=O)N[C@@H](CC(=O)O)C(=O)N[C@H](C)C(=O)N[C@@H](CC(=O)O)C(=O)NCC(=O)N[C@H](CO)C(=O)N[C@@H]([C@H](C)CC(=O)O)C(=O)N[C@@H](CC(=O)c2ccccc2N)C(=O)O[C@@H]1C [Daptomycin] + CC1(C)S[C@@H]2[C@H](NC(=O)Cc3ccccc3)C(=O)N2[C@H]1C(=O)O [PenicillinG]
Bliss interaction score [1]: 0.0645 | Bliss interaction score [2]: 0.101 | Bliss interaction score [3]: 0.0411 | Bliss interaction score [4]: 0.107

CCCCCCCCCC(=O)N[C@@H](Cc1c[nH]c2ccccc12)C(=O)N[C@H](CC(N)=O)C(=O)N[C@@H](CC(=O)O)C(=O)N[C@@H]1C(=O)NCC(=O)N[C@@H](CCCN)C(=O)N[C@@H](CC(=O)O)C(=O)N[C@H](C)C(=O)N[C@@H](CC(=O)O)C(=O)NCC(=O)N[C@H](CO)C(=O)N[C@@H]([C@H](C)CC(=O)O)C(=O)N[C@@H](CC(=O)c2ccccc2N)C(=O)O[C@@H]1C [Daptomycin] + CC(=O)O[C@H]1C[C@@]2(C)[C@@H](C[C@@H](O)[C@H]3[C@@]4(C)CC[C@@H](O)[C@@H](C)[C@@H]4CC[C@@]32C)/C1=C(\CCC=C(C)C)C(=O)O [Fusidic acid]
Bliss interaction score [1]: -0.0422 | Bliss interaction score [2]: 0.0625 | Bliss interaction score [3]: 0.0265 | Bliss interaction score [4]: -0.109

CCCCCCCCCC(=O)N[C@@H](Cc1c[nH]c2ccccc12)C(=O)N[C@H](CC(N)=O)C(=O)N[C@@H](CC(=O)O)C(=O)N[C@@H]1C(=O)NCC(=O)N[C@@H](CCCN)C(=O)N[C@@H](CC(=O)O)C(=O)N[C@H](C)C(=O)N[C@@H](CC(=O)O)C(=O)NCC(=O)N[C@H](CO)C(=O)N[C@@H]([C@H](C)CC(=O)O)C(=O)N[C@@H](CC(=O)c2ccccc2N)C(=O)O[C@@H]1C [Daptomycin] + CC[C@H]1OC(=O)[C@H](C)C(=O)[C@H](C)[C@@H](O[C@@H]2O[C@H](C)C[C@H](N(C)C)[C@H]2O)[C@](C)(OC)C[C@@H](C)C(=O)[C@H](C)[C@H]2N(CCCCn3cnc(-c4cccnc4)c3)C(=O)O[C@]12C [Telithromycin]
Bliss interaction score [1]: 0.0361 | Bliss interaction score [2]: 0.0516 | Bliss interaction score [3]: 0.0926 | Bliss interaction score [4]: -0.0436
